Measurements: doi:10.1101/2024.12.03.626577v1 (biorxiv, 2024)
Read-outs that look alike come from different tables or passages of the source.

How the values were obtained:
PANC-1 = assay: cells; details: Homo sapiens, PANC-1, 72 h, read-out: PANC-1 IC50 (µM)
[1] = target: T1, TRIM21^PRY-SPRY (287-465aa) (Homo sapiens, UniProt P19474); assay: SPR; assay type: binding
[2] = target: T1, TRIM21^PRY-SPRY (287-465aa); assay: SPR; assay type: binding; remark: listed apart in the source

T1 sequence (P19474 287-465): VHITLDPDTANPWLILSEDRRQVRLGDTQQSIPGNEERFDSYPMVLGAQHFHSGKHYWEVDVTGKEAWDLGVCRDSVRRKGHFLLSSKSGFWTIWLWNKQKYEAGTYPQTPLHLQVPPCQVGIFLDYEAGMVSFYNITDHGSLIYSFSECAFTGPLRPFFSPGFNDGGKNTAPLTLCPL

CN(CC1CCCCC1)C(=O)c1ccc(-c2ccccc2F)cc1S(C)(=O)=O [2b, Compound 2b]
IC50 (PANC-1): 5.14 µM | Kd [1]: 2150 nM

CSc1ccccc1-c1ccc(C(=O)N(C)CC2CCOCC2)c(S(C)(=O)=O)c1 [1b, Compound 1b]
Kd [1]: 29 nM

COc1cnccc1-c1ccc(C(=O)N(C)CC2CCCCC2)c(S(C)(=O)=O)c1 [2d, Compound 2d]
Kd [1]: 1570 nM

CSc1ccccc1-c1ccc(C(=O)N(C)CC2CCCCC2)c(S(C)(=O)=O)c1 [1a, Compound 1a]
Kd [1]: 123 nM

CSc1ccccc1-c1ccc(C(=O)N(C)Cc2ccon2)c(S(C)(=O)=O)c1 [1d, Compound 1d]
Kd [1]: 171 nM

CSc1cc(F)ccc1-c1ccc(C(=O)N(C)CC2CCCCC2)c(S(C)(=O)=O)c1 [2e]
IC50 (PANC-1): 0.094 µM

COc1cnccc1-c1ccc(C(=O)N(C)CC2CCCCC2)c(S(C)(=O)=O)c1 [2d]
IC50 (PANC-1): 0.791 µM

Cc1ccccc1-c1ccc(C(=O)N(C)CC2CCCCC2)c(S(C)(=O)=O)c1 [2c, Compound 2c]
Kd [1]: 610 nM

CSc1ccccc1-c1ccc(C(=O)N(C)CC2(F)CCCCC2)c(S(C)(=O)=O)c1 [compound 1, Compound 1]
Kd [2]: 193 nM

CSc1ccccc1-c1ccc(C(=O)N(C)CC2CCOC2)c(S(C)(=O)=O)c1 (centres unmarked) [1f, Compound 1f]
Kd [1]: 350 nM

Cc1ccccc1-c1ccc(C(=O)N(C)CC2CCCCC2)c(S(C)(=O)=O)c1 [2c]
IC50 (PANC-1): 1.62 µM

CCc1ccccc1CN(C)C(=O)c1ccc(-c2ccccc2SC)cc1S(C)(=O)=O [1e, Compound 1e]
Kd [1]: 581 nM

CSc1ccccc1-c1ccc(C(=O)N(C)CC2CCCCC2(F)F)c(S(C)(=O)=O)c1 (centres unmarked) [2a, Compound 2a]
IC50 (PANC-1): 0.329 µM | Kd [1]: 234 nM

CSc1ccccc1-c1ccc(C(=O)N(C)Cc2cc[nH]c(=O)c2)c(S(C)(=O)=O)c1 [1g, Compound 1g]
Kd [1]: 11 nM

CSc1ccccc1-c1ccc(C(=O)N(C)Cc2cc[nH]c2)c(S(C)(=O)=O)c1 [1c, Compound 1c]
Kd [1]: 17 nM
